Measured values as given in patent publication US20030225123A1, “Antihypertensive agents and use” (priority 2003, published 2003).
Values joined by “and” are separate entries in the source; they are usually repeats but may differ in a detail not shown here. Equal values may be shown once.

Key:
SHR = assay: Antihypertensive effect (MABP by radiotelemetry) of CI-1027, amlodipine and their combination in SHR (Example 2); format: in vivo, rat
Method: The general procedure of Example 1 was followed to evaluate the antihypertensive efficacy of the carboxyalkylether CI-1027 alone and in combination with the calcium channel blocker amlodipine.
Male SHR (15-20 weeks old, Charles River Laboratories) were prepared with indwelling aortic catheters and radiotransmitters for continuous measurement of arterial blood pressure and heart rate. Animals were allowed food and water ad libitum. Before dosing all rats were given a minimum of 7 days for recovery from surgery.
The experiment was carried out over 22 days in 3 groups of SHR. Group I served as a control and received 2 mL/kg/day of vehicle (same as in Example 1) for 22 consecutive days. Group II, used to determined the antihypertensive response to amlodipine monotherapy, was given vehicle for the first 13 consecutive days. Then on Day 14, amlodipine was added at a dose of 0.3 mg/kg/day for 3 consecutive days. The dose was then increased to 1 mg/kg/day for the next 3 days, and on the final 3 days, 3 mg/kg/day was given. To determine the response to CI-1027 monotherapy, Group III received a 13-day treatment with CI-1027 monotherapy at a dose of 30 mg/kg/day. The antihypertensive response to the combination therapy was determined by the addition of amlodipine to ongoing CI-1027 treatment on Day 14.
Drugs were suspended or dissolved in vehicle that contains 96% water, 3% carboxymethocellulose, and 1% tween 88. Compounds were given at 9 AM daily by oral gavage in a volume of 2 mL/kg. The combination of CI-1027 and amlodipine was given as a single gavage in a volume of 2 mL/kg.

[1] = tested on: spontaneously hypertensive rats (SHR); assay: Antihypertensive effect (MABP by radiotelemetry) of CI-1027, quinapril and their combination in SHR (Example 1); format: in vivo, rat
Method: The antihypertensive effects of the carboxyalkylether compound of Formula III (CI-1027), alone and in combination with an antihypertensive agent such as quinapril (CI-906), were evaluated in rats according to the following protocol. Male spontaneously hypertensive rats (SHR, 15-20 weeks old, Charles River Laboratories, Wilmington, Mass.) were prepared with indwelling aortic catheters and radiotransmitters (Data Sciences International, Saint Paul, Minn.). The radiotransmitters provided continuous measurement of aortic blood pressure waveform. From the aortic blood pressure waveform a Ponemah (Gould Instruments Inc, Valley View, Ohio) computer provided mean arterial blood pressure (MABP) and heart rate values continuously as one-minute averages. One-minute data was then summarized at 15-minute intervals using Excel (Microsoft Corporation, Redmond, Wash.) spreadsheets. Animals were allowed food and water ad libitum. To allow for recovery following surgery, rats were not dosed for a minimum of 7 days. Day 0 predose blood pressures were obtained by averaging eight 15-minute MABP measurements made 2 hours before dosing. To obtain the peak response to treatment (Days 0, 12, 16, 19, and 22), the 15-minute MABP measurements in the interval between 2 and 4 hours post-dose were averaged. Test compounds were given in a vehicle that contained 96% water, 3% carbomethocellulose (Sigma Chemical, Saint Louis, Mo.) and 1% tween […] (polyoxyethylenesorbitan monooleate, Sigma Chemical). CI-1027 and quinapril monotherapy were administered at 8:30 AM daily by oral gavage in a volume of 2 mL/kg. The combination of CI-1027 and quinapril was given as a single gavage in a volume of 2 mL/kg. The experiment was carried out over 22 days in 4 groups of animals. Group I served as a control and received 2 mL/kg/day of vehicle for 22 consecutive days. Group II, used to determine the antihypertensive response to quinapril monotherapy, was given vehicle for the first 12 to 13 consecutive days. Then on Day 13 to 14 quinapril was added at a dose of 0.3 mg/kg/day for 3 to 4 consecutive days; the dose was then increased to 1 mg/kg/day for the next 3 days, and on the final 3 days, 3 mg/kg/day was administered. To determine the response to CI-1027 monotherapy, Groups III and IV received 12-day treatment with CI-1027 monotherapy at doses of 30 and 100 mg/kg/day, respectively. To determine the antihypertensive response to the combination therapy quinapril, was added to the ongoing CI-1027 treatment (Day 13-14) using the rising dose protocol described for Group II (quinapril monotherapy). [table]

CCOC(=O)C1=C(COCCN)NC(C)=C(C(=O)OC)C1c1ccccc1Cl (stereo not drawn) [Amlodipine, amlodipine]
Peak MABP (SHR; Amlodipine 0.3 mg/kg/day oral, Day 16, 4-6 h postdose): 140 ± 6 mm Hg | Peak MABP (SHR; Amlodipine 1 mg/kg/day oral, Day 19, 4-6 h postdose): 131 ± 5 mm Hg | Peak MABP (SHR; Amlodipine 3 mg/kg/day oral, Day 22, 4-6 h postdose): 114 mm Hg and 114 ± 5 mm Hg | Threshold antihypertensive dose (SHR; amlodipine monotherapy (Group II), oral): 1 mg/kg/day

CC(C)(CCCCOCCCCC(C)(C)C(=O)O)C(=O)O [CI-1027]
Peak MABP (SHR; CI-1027 30 mg/kg/day oral, Day 0, 4-6 h postdose): 129 ± 4 mm Hg | Peak MABP (SHR; CI-1027 30 mg/kg/day oral, Day 13, 4-6 h postdose, 30 mg/kg/day): 120 mm Hg and 120 ± 8 mm Hg | Effect of monotherapy on blood pressure (SHR; CI-1027 monotherapy 30 mg/kg/day, 13 days): lowers blood pressure in the SHR | Peak MABP ([1]; CI-1027 30 mg/kg/day oral, Day 0, 2-4 h postdose): 145 ± 4 mm Hg | Peak MABP ([1]; CI-1027 30 mg/kg/day oral, Day 12, 2-4 h postdose, 30 mg/kg/day): 131 mm Hg and 131 ± 3 mm Hg | Peak MABP ([1]; CI-1027 100 mg/kg/day oral, Day 0, 2-4 h postdose): 141 ± 4 mm Hg | Antihypertensive activity of monotherapy ([1]; CI-1027 monotherapy 30 and 100 mg/kg/day, 12 days): modest antihypertensive activity

CCOC(=O)[C@H](CCc1ccccc1)N[C@@H](C)C(=O)N1Cc2ccccc2C[C@H]1C(=O)O [Quinapril, quinapril]
Peak MABP ([1]; Quinapril 0.3 mg/kg/day oral, Day 16, 2-4 h postdose): 122 ± 5 mm Hg | Peak MABP ([1]; Quinapril 1 mg/kg/day oral, Day 19, 2-4 h postdose): 121 ± 4 mm Hg | Peak MABP ([1]; Quinapril 3 mg/kg/day oral, Day 22, 2-4 h postdose): 117 mm Hg and 117 ± 4 mm Hg | Antihypertensive response at 3 mg/kg/day greater than at 0.3 mg/kg/day ([1]; Quinapril monotherapy, rising dose): 5 mm Hg
